Measurements published in USRE47689E1, “Compounds for treating spinal muscular atrophy” (PTC Therapeutics, Inc., priority 2011, dated 2019).

Test system: full length and Δ7 SMN2 mRNAs
Assay: SMN2 mRNA RT-qPCR splicing assay in animal tissues
Type: in vivo, mouse
Conditions: C/C-allele SMA mice, brain and muscle, 10 mg/kg oral gavage twice per day for 10 days
Method: The reverse transcription-quantitative PCR-based (RT-qPCR) assay is used to quantify the levels of the full length and Δ7 SMN2 mRNAs in tissues from mice treated with test compound.
Protocol. C/C-allele SMA mice are treated by oral gavage two times per day for 10 days with test compounds resuspended in 0.5% HPMC and 0.1% Tween-80. Tissue samples were collected and snap frozen for RNA purification.
Tissue samples (20-40 mg) are homogenized in QIAzol Lysis Reagent for 2 minutes at 20 Hz in the TissueLyser II using one stainless steel bead. After addition of chloroform, the homogenate is separated into aqueous and organic phases by centrifugation. RNA partitioned to the upper, aqueous phase is extracted and ethanol is added to provide appropriate binding conditions. The sample is then applied to the RNeasy spin column from the RNeasy Mini Kit, where total RNA binds to the membrane. The RNA is eluted in RNase-free water then stored at −20° C. and subsequently analyzed using the TaqMan RT-qPCR on the 7900HT Thermocycler. Total RNA is diluted ten fold and 2.5 μL of the diluted sample is added to the TaqMan RT-qPCR mixture.
SMN2 spliced products are identified using the following primers and probes in Table 7. Primer SMN FL Forward B (SEQ ID NO. 7) hybridizes to a nucleotide sequence in exons 7 and 8, primer SMN Δ7 Forward B (SEQ ID NO. 8) hybridizes to a nucleotide sequence in exons 6 and 8, primer SMN Reverse B (SEQ ID NO. 9) hybridizes to a nucleotide sequence in exon 8, probe SMN Probe B (SEQ ID NO. 10) hybridizes to a nucleotide sequence in exon 8. These primers and probe hybridize to nucleotide sequences common to human SMN1 and SMN2 mRNAs. Since the SMA patient cells used in Example 5 contain only the SMN2 gene, RT-qPCR can quantify only SMN2 full-length and Δ7 mRNAs.
The SMN forward and reverse primers are used at final concentrations of 0.4 μM. The SMN probe is used at a final concentration of 0.15 μM. The SMN-GAPDH Mix (10 μL total volume) is prepared by combining 5 μL of 2×RT-PCR buffer, 0.4 μL of 25×RT-PCR enzyme mix, 0.5 μL of 20×GAPDH primer-probe mix, 1.505 μL of water, 2.5 μL of RNA solution, 0.04 μL of 100 μM forward primer, 0.04 μL of 100 μM reverse primer, and 0.015 μL of 100 μM SMN probe. […]
The increase of SMN2 FL and decrease in SMN2 Δ7 mRNAs relative to those in tissues from animals treated with vehicle control are determined from real-time PCR data using a modified ΔΔCt method (as described in Livak and Schmittgen, Methods, 2001, 25:402-8). The amplification efficiency E is calculated from the slope of the amplification curve for SMN2 FL, SMN2 Δ7, and GAPDH individually. The abundances of SMN2 FL, SMN2 Δ7, and GAPDH are then calculated as (1+E)^−Ct, where Ct is the threshold value for each amplicon. […]

SMILES | SMN2 FL mRNA relative to vehicle | SMN2 Δ7 mRNA relative to vehicle
CCN1CCN(c2ccc3cc(-c4cn5cc(C)nc(C)c5n4)c(=O)oc3c2)C[C@@H]1C [Cpd 626, 3-(6,8-dimethylimidazo[1,2-a]pyrazin-2-yl)-7-[(3S)-4-ethyl-3-methylpiperazin-1-yl]-2H-chromen-2-one] | substantially more SMN2 FL mRNA | less SMN2 Δ7 mRNA
CC(C)NCCc1ccc2cc(-c3nc4c(Cl)cccc4s3)c(=O)oc2c1 [Cpd 35, 3-(4-chloro-1,3-benzothiazol-2-yl)-7-[2-(propan-2-ylamino)ethyl]-2H-chromen-2-one] | substantially more SMN2 FL mRNA | less SMN2 Δ7 mRNA
